Source: patent US20040171624A1, “Pharmaceutical composition for treating mood disorders” (priority 2001, published 2004)

System: mouse
Format: in vivo
Conditions: oral administration at 5 g/kg weight
Text: The theanine used in the present invention has high safety. […] Also, especially L-theanine is known as a main component of umami (tastiness) of the green tea, and is also used as a food additive giving umami, without the limitation of its added amount under the regulation for food hygiene. Moreover, contrary to the conventional drugs, since there is no side effect by theanine at all, the mood disorders can be safely and effectively treated, ameliorated or the like according to the composition of the present invention.

CCNC(=O)CC[C@H](N)C(=O)O [theanine]
cases of death: no cases of death
